ChEMBL document CHEMBL1201862, “PubChem BioAssay data set” (2004)
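How tested: cells in 96-well plates exposed to compound for 48 hours at five concentrations. The concentration for 50% growth inhibition is given as GI50.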 Calls of active or inactive are those of the source. No stated cut-off is given here; in the data, active = GI50 up to about 1.1 µM and inactive = higher.

Key:
Assay in all cases: inhibition of tumour cell growth, NCI panel, 48 h
NCI-H23 = system: NCI-H23
SF-539 = system: SF-539
M14 = system: M14
COLO 205 = system: COLO 205
U-251 = system: U-251
EKVX = system: EKVX
HL-60 = system: HL-60
KM-20L2 = system: KM-20L2
NCI-H226 = system: NCI-H226
DLD-1 = system: DLD-1
OVCAR-5 = system: OVCAR-5
SNB-75 = system: SNB-75
HOP-18 = system: HOP-18
Malme-3M = system: Malme-3M
SNB-78 = system: SNB-78
RXF 393 = system: RXF 393

Measured: GI50

COc1ccc(C(N)=O)cc1/N=N/N(C)C
inactive: NCI-H23 > 100 µM | SF-539 > 100 µM | M14 > 100 µM | COLO 205 > 100 µM | U-251 > 100 µM | EKVX > 100 µM | HL-60 > 100 µM | KM-20L2 > 100 µM | NCI-H226 > 100 µM | DLD-1 > 100 µM | OVCAR-5 > 100 µM | SNB-75 > 100 µM | HOP-18 > 100 µM | Malme-3M > 100 µM

O=C1C=CC(CC(=O)c2ccc3ccccc3c2)O1 (centres undefined)
inactive: SNB-78 34.9 µM | NCI-H23 20.7 µM | SF-539 18.9 µM | M14 32.2 µM | COLO 205 18 µM | U-251 18.2 µM | EKVX > 100 µM | HL-60 17.1 µM | KM-20L2 20.5 µM | RXF 393 20.5 µM | DLD-1 28.7 µM | OVCAR-5 25.4 µM | SNB-75 37.8 µM | HOP-18 35 µM | Malme-3M 34.3 µM

CC1(C=O)C(=O)CCC2(C)C3CC(=O)OC3CCC12 (centres undefined)
inactive: NCI-H23 > 100 µM | SF-539 > 100 µM | M14 > 100 µM | COLO 205 > 100 µM | U-251 > 100 µM | EKVX > 100 µM | HL-60 > 100 µM | KM-20L2 > 100 µM | RXF 393 > 100 µM | DLD-1 > 100 µM | OVCAR-5 > 100 µM | SNB-75 > 100 µM | HOP-18 > 100 µM | Malme-3M > 100 µM

CCOP1(=O)C=C(C)C(Cl)=C(C)C1 (centres undefined)
inactive: NCI-H23 22.9 µM | SF-539 23.1 µM | M14 17.1 µM | COLO 205 12 µM | U-251 24.3 µM | EKVX > 100 µM | HL-60 19.1 µM | KM-20L2 32.7 µM | NCI-H226 21.4 µM | RXF 393 29.7 µM | DLD-1 25.9 µM | OVCAR-5 43.9 µM | SNB-75 15.4 µM | HOP-18 68.7 µM

O=C1CCC(=O)C1=NNc1ccccc1
inactive: SNB-78 > 100 µM | NCI-H23 > 100 µM | SF-539 > 100 µM | M14 > 100 µM | COLO 205 > 100 µM | U-251 > 100 µM | EKVX > 100 µM | HL-60 > 100 µM | NCI-H226 > 100 µM | RXF 393 > 100 µM | DLD-1 > 100 µM | OVCAR-5 > 100 µM | SNB-75 > 100 µM | HOP-18 > 100 µM | Malme-3M > 100 µM

CCCCCCCCCCCCCCCC(=O)OCCOCCOCCOCc1ccccc1
inactive: SNB-78 > 100 µM | NCI-H23 > 100 µM | SF-539 > 100 µM | COLO 205 > 100 µM | U-251 41.6 µM | EKVX > 100 µM | NCI-H226 > 100 µM | RXF 393 > 100 µM | DLD-1 > 100 µM | OVCAR-5 > 100 µM | SNB-75 65.3 µM | HOP-18 50.8 µM | Malme-3M > 100 µM

CC1=N/C(=C\c2ccc(N)cc2)C(=O)N1Nc1nnc(NN2C(=O)/C(=C/c3ccc(N)cc3)N=C2C)c2ccccc12
inactive: NCI-H23 > 100 µM | SF-539 24.8 µM | M14 > 100 µM | COLO 205 83.6 µM | U-251 45.4 µM | EKVX > 100 µM | HL-60 22.1 µM | KM-20L2 > 100 µM | NCI-H226 14.3 µM | RXF 393 22.5 µM | DLD-1 > 100 µM | OVCAR-5 > 100 µM | SNB-75 5.05 µM | HOP-18 27.1 µM

N=C(N)SCc1cn2ccccc2n1
inactive: SNB-78 > 100 µM | NCI-H23 > 100 µM | SF-539 > 100 µM | M14 > 100 µM | COLO 205 > 100 µM | U-251 > 100 µM | EKVX > 100 µM | HL-60 > 100 µM | NCI-H226 > 100 µM | DLD-1 77.8 µM | OVCAR-5 > 100 µM | SNB-75 > 100 µM | HOP-18 > 100 µM | Malme-3M > 100 µM

O=C1c2cccc3c(Cl)ccc(c23)C(=O)N1CCCN1CCN(CCCN2C(=O)c3cccc4c(Cl)ccc(c34)C2=O)CC1
inactive: SNB-78 90.8 µM | NCI-H23 97.1 µM | SF-539 > 100 µM | M14 > 100 µM | COLO 205 > 100 µM | U-251 55.7 µM | EKVX > 100 µM | HL-60 > 100 µM | KM-20L2 46.2 µM | NCI-H226 > 100 µM | DLD-1 50.5 µM | OVCAR-5 > 100 µM | SNB-75 40.2 µM | HOP-18 > 100 µM | Malme-3M > 100 µM

O=C1OC2(c3ccccc3Oc3ccccc32)c2ccccc21
inactive: SNB-78 > 100 µM | NCI-H23 > 100 µM | SF-539 > 100 µM | M14 > 100 µM | COLO 205 > 100 µM | U-251 > 100 µM | EKVX > 100 µM | HL-60 99.8 µM | KM-20L2 > 100 µM | NCI-H226 > 100 µM | DLD-1 > 100 µM | OVCAR-5 > 100 µM | SNB-75 > 100 µM | HOP-18 > 100 µM | Malme-3M > 100 µM

CC(=O)O[C@H]1CSC[C@@H](OC(C)=O)C1[N+](=O)[O-] (some centres undefined)
inactive: SNB-78 33.4 µM | NCI-H23 > 100 µM | SF-539 43.8 µM | M14 29.6 µM | COLO 205 21.4 µM | U-251 > 100 µM | EKVX > 100 µM | HL-60 23.2 µM | KM-20L2 > 100 µM | NCI-H226 > 100 µM | RXF 393 20.1 µM | OVCAR-5 > 100 µM | SNB-75 65.2 µM | HOP-18 50.7 µM | Malme-3M 23 µM

O=C1/C(=C/c2ccc(Br)cc2)CCC/C1=C\c1ccc(Br)cc1
inactive: SNB-78 18.7 µM | NCI-H23 5.69 µM | SF-539 16 µM | M14 3.03 µM | COLO 205 12.7 µM | U-251 7.05 µM | EKVX 24.2 µM | HL-60 3.18 µM | KM-20L2 5.22 µM | RXF 393 5.14 µM | DLD-1 5.04 µM | SNB-75 20.6 µM | HOP-18 13.6 µM | Malme-3M 19.6 µM

COc1c(C)c(O)c2c(=O)cc(-c3ccccc3)oc2c1C
inactive: SNB-78 > 100 µM | NCI-H23 > 100 µM | SF-539 > 100 µM | M14 > 100 µM | U-251 > 100 µM | EKVX > 100 µM | KM-20L2 > 100 µM | NCI-H226 > 100 µM | DLD-1 > 100 µM | OVCAR-5 > 100 µM | SNB-75 > 100 µM | HOP-18 > 100 µM | Malme-3M > 100 µM

C=C1C(=O)O[C@@H]2[C@H]1CCC(C)=C1C=CC(=O)[C@]12C
inactive: SNB-78 4.61 µM | NCI-H23 > 10 µM | SF-539 15.5 µM | COLO 205 8.36 µM | U-251 22.4 µM | EKVX 17 µM | HL-60 3.3 µM | NCI-H226 22.9 µM | RXF 393 14.4 µM | DLD-1 14.9 µM | OVCAR-5 17.9 µM | SNB-75 18.9 µM | HOP-18 15.9 µM | Malme-3M > 10 µM
